16 compounds from patent publication US8129371B2, “Thienopyrimidine and pyrazolopyrimidine compounds and their use as mTOR kinase and PI3 kinase inhibitors” (Wyeth LLC, priority 2007, dated 2012) can be followed below.

Where two headings read alike, the source gives them in different places.

Assay [1] has as its target T1, Human mTOR (FLAG-TOR) (Homo sapiens, UniProt P42345).
T1 construct: FLAG
The assay can be described thus: Human mTOR kinase assay with purified enzyme, DELFIA format. It is filed as biochemical. The procedure:
Enzymes are first diluted in kinase assay buffer (10 mM HEPES (pH 7.4), 50 mM NaCl, 50 mM β-glycerophosphate, 10 mM MnCl2, 0.5 mM DTT, 0.25 mM microcystin LR, and 100 mg/mL BSA). To each well, 12 μL of the diluted enzyme is mixed briefly with 0.5 μL test inhibitor or control vehicle dimethylsulfoxide (DMSO). […] The reaction plate is incubated for 2 hours (linear at 1-6 hours) at room temperature with gentle shaking and then terminated by adding 25 μL Stop buffer (20 mM HEPES (pH 7.4), 20 mM EDTA, 20 mM EGTA). […] The DELFIA Assay buffer and Enhancement solution can be purchased from PerkinElmer. 45 μL of the terminated kinase reaction mixture is transferred to a MaxiSorp plate (Nunc) containing 55 μL PBS. The His6-S6K is allowed to attach for 2 hours after which the wells are aspirated and washed once with PBS. 100 μL of DELFIA Assay buffer with 40 ng/mL Eu—P(T389)-S6K antibody is added. The antibody binding is continued for 1 hour with gentle agitation. The wells are then aspirated and washed 4 times with PBS containing 0.05% Tween-20 (PBST). 100 μL of DELFIA Enhancement solution is added to each well and the plates are read in a PerkinElmer Victor model plate reader. Data obtained is used to calculate enzymatic activity and enzyme inhibition by potential inhibitors.

For assay [2], the target named is T2, PI3K (Homo sapiens, UniProt P48736).
T2 construct: PI3 Kinase γ IC50; other: PI3 Kinase γ; other: PI3 Kinase γ isoform, fluorescence polarization
T2 sequence (P48736 whole entry, canonical isoform): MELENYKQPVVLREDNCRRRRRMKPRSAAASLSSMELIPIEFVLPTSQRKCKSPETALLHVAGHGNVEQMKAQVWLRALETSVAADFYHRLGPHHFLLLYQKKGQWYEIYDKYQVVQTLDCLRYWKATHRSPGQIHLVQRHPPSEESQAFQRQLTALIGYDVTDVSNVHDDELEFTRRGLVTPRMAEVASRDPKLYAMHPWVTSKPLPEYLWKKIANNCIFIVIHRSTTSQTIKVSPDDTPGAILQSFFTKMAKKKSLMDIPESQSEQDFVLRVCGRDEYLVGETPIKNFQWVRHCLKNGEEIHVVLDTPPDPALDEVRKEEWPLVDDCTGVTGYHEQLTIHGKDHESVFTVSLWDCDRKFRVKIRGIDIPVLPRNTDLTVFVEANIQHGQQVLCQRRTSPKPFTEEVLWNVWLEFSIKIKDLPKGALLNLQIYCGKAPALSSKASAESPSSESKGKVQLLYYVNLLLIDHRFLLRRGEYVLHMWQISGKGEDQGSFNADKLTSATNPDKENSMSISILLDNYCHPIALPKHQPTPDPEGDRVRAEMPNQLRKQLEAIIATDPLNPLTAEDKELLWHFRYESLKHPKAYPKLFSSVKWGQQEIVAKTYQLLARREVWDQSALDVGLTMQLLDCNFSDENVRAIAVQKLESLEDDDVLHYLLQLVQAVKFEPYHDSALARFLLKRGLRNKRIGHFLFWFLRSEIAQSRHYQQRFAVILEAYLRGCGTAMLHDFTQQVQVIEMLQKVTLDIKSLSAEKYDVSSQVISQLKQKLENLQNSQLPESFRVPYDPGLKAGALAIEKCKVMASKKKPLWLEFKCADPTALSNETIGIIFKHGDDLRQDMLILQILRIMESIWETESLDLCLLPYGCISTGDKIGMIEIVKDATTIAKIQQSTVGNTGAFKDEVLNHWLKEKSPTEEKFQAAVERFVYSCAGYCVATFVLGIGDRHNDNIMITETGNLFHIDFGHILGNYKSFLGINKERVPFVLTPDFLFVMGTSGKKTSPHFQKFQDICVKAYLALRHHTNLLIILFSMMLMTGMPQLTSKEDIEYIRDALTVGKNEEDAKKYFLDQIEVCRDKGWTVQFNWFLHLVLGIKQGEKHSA
The experiment in a line: Fluorescence polarization assay for PI3K. It is filed as biochemical. The conditions noted are these: read-out: PI3 Kinase γ IC50. How it is done:
(§1) This assay is used to determine the IC50 of compounds of the present invention as it identifies inhibitors of PI3 kinase by measuring inhibition.
(§2) The assay is run by placing 5 μL of diluted enzyme per well, then 5 μL of diluted compound (or 9.5 μL enzyme then 0.5 μL compound in DMSO) is added and mixed. Then, 10 μL substrate is added to start the reaction. The samples are incubated 30-60 minutes, then the reaction is stopped by adding 20 μL stop/detector mix. PI3K is diluted with reaction buffer (e.g., 5 μL or 7.5 μL PI3K into 620 μL reaction buffer), and 5 μL of diluted enzyme is used per well. 5 μL reaction buffer or drug diluted in buffer (e.g., 4 μL/100 so final DMSO is 1% in reaction) is added to each. Pipetting up and down mixes the samples. Alternatively, the enzyme can be diluted to 1215 μL. In this case 9.8 μL is added per well and 0.2 μL compound is added in DMSO. To prepare 1 mL of substrate solution, 955 μL reaction buffer, 40 μL PIP2, and 2.5 μL ATP are mixed. 10 μL of substrate is added to each well to start the reaction.
(§3) Stop/detector mix is prepared by mixing 4 μL Red detector and 1.6 μL or 2.0 μL GST-GRP with 1 mL Stop buffer, which results in 10 nM probe and 70 nM GST-GRP). 20 μL of the stop/detector mix is added to each well to stop the reaction. The plates are read after 30-90 minutes keeping the red probe solutions dark. For the zero time point, stop/detector mix is added to the enzyme just before adding substrate. For an extra control, stop/detector mix is added to buffer (no enzyme) and substrate or to just buffer (no substrate). […] Plates are read on machines with filters for Tamra. The units are mP with no enzyme controls reading app 190-220 mP units. Fully active enzyme reduces fluorescence polarization down to 70-100 mP after 30 minutes.

The target of assay [3] is T3, PI3K (Homo sapiens, UniProt P42336).
T3 construct: PI3 Kinase α IC50; other: PI3 Kinase α; other: PI3 Kinase α isoform, fluorescence polarization
T3 sequence (P42336 whole entry, canonical isoform): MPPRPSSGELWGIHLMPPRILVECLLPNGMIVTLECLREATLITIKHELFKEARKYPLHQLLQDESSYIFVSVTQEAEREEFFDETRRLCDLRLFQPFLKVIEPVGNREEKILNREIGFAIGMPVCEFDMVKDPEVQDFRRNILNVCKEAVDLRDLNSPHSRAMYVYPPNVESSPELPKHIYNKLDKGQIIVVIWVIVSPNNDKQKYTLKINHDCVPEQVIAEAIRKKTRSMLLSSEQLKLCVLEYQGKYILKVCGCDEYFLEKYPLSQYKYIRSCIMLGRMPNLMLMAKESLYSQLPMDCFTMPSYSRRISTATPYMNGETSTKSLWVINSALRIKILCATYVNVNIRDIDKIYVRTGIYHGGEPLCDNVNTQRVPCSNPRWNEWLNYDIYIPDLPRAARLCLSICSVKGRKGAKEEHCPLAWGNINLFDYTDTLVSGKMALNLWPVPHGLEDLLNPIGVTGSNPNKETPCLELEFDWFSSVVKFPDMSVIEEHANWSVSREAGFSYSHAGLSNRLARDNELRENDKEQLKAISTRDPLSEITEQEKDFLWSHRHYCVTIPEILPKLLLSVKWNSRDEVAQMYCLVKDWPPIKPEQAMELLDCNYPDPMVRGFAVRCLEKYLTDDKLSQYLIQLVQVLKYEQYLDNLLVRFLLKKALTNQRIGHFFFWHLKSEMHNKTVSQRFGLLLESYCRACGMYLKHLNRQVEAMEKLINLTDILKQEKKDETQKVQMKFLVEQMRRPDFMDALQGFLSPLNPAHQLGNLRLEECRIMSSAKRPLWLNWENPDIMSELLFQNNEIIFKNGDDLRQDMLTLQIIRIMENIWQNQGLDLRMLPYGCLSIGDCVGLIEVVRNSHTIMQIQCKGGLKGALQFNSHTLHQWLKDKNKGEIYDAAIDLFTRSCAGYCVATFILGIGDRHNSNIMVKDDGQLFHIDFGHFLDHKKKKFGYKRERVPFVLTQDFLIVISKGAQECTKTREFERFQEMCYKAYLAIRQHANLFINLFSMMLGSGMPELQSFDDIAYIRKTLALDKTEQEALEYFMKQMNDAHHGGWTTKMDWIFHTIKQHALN
The assay can be described thus: Fluorescence polarization assay for PI3K. It is filed as biochemical. The conditions noted are these: read-out: PI3 Kinase α IC50. How it is done:
as §1, §2, §3

The subject of assay [4] is breast line MDA468. The experiment in a line: In vitro cell culture growth assay (MTS), MDA468. It is filed as cell-based. The conditions noted are these: Homo sapiens, 72 h, MDA468 cells, three days after drug treatment. The procedure: Human tumor cell lines used include prostate lines LNCap and PC3MM2, breast lines MDA468, MCF7, renal line HTB44 (A498), colon line HCT116, and ovarian line OVCAR3. Cells were plated in 96-well culture plates. One day following plating, the inhibitors were added to cells. Three days after drug treatment, viable cell densities were determined by metabolic conversion (by viable cells) of the dye MTS, a well-established cell proliferation assay. The assays were performed using an assay kit purchased from Promega Corp. (Madison, Wis.) following the protocol supplied with the kit. The MTS assay results were read in a 96-well plate reader by measuring absorbance at 490 nm. The effect of each treatment was calculated as percent of control growth relative to the vehicle-treated cells grown in the same culture plate.

[5] abbreviates: purified human mTOR enzyme, DELFIA format.
The mark [6] stands for this setting: PI3 Kinase γ isoform, fluorescence polarization.
The mark [7] stands for this setting: PI3 Kinase α isoform, fluorescence polarization.

In general, IC50 refers to the point on the concentration scale where inhibition reaches its midpoint.

Turning to `CNC(=O)Nc1ccc(-c2nc(N3CC4CCC(C3)O4)c3cnn(C4CCC(O)CC4)c3n2)cc1` (centres unmarked) [Example 64, 1-{4-[1-(4-hydroxycyclohexyl)-4-(8-oxa-3-azabicyclo[3.2.1]oct-3-yl)-1H-pyrazolo[3,4-d]pyrimidin-6-yl]phenyl}-3-methylurea], the concentration for half-maximal inhibition (IC50) was 0.21 nM in assay [1], 5000 nM in assay [2] (PI3 Kinase γ) and 1310 nM in assay [3] (PI3 Kinase α).
For `O=C(Nc1ccccc1)Nc1ccc(-c2nc(N3CC4CCC(C3)O4)c3sccc3n2)cc1` [Example 411, 1-{4-[4-(8-oxa-3-azabicyclo[3.2.1]oct-3-yl)thieno[3,2-d]pyrimidin-2-yl]phenyl}-3-phenylurea], the half-inhibitory concentration (IC50) in assay [1] (setting [5]) worked out at 1.3 nM; in assay [4], 380 nM; in assay [2] (setting [6]), 2190 nM; in assay [3] (setting [7]) it was 82 nM.
For the compound `O=C(NCCO)Nc1ccc(-c2nc(N3CC4CCC(C3)O4)c3sccc3n2)cc1` [Example 409, 1-(2-hydroxyethyl)-3-{4-[4-(8-oxa-3-azabicyclo[3.2.1]oct-3-yl)thieno[3,2-d]pyrimidin-2-yl]phenyl}urea], the half-maximal inhibitory concentration (IC50) in assay [1] (setting [5]) was 0.31 nM; in assay [4], 475 nM; in assay [2] (setting [6]), at least 10000 nM; in assay [3] (setting [7]) it was 324 nM.
For the compound `CCNC(=O)Nc1ccc(-c2nc(N3CC4CCC(C3)O4)c3sccc3n2)cc1` [Example 407, 1-ethyl-3-{4-[4-(8-oxa-3-azabicyclo[3.2.1]oct-3-yl)thieno[3,2-d]pyrimidin-2-yl]phenyl}urea], the IC50 is 0.76 nM in assay [1] (setting [5]), 250 nM in assay [4], above 10000 nM in assay [2] (setting [6]) and 1260 nM in assay [3] (setting [7]).
`O=C(Nc1ccncc1)Nc1ccc(-c2nc(N3CC4CCC(C3)O4)c3cnn(CC(F)(F)F)c3n2)cc1` [Example 104, 1-{4-[4-(8-oxa-3-azabicyclo[3.2.1]oct-3-yl)-1-(2,2,2-trifluoroethyl)-1H-pyrazolo[3,4-d]pyrimidin-6-yl]phenyl}-3-pyridin-4-ylurea]: the half-maximal inhibitory concentration (IC50) in assay [1] was 0.16 nM; in assay [2] (PI3 Kinase γ), 695 nM; in assay [3] (PI3 Kinase α) it was 201 nM.
As to `CC(C)C(=O)N1CCC(n2ncc3c(N4CC5CCC(C4)O5)nc(-c4ccc(N)cc4)nc32)CC1` [Example 80, 4-[1-(1-isobutyrylpiperidin-4-yl)-4-(8-oxa-3-azabicyclo[3.2.1]oct-3-yl)-1H-pyrazolo[3,4-d]pyrimidin-6-yl]aniline], the IC50 was 100 nM in assay [1], above 10000 nM in assay [2] (PI3 Kinase γ) and above 10000 nM in assay [3] (PI3 Kinase α).
In the case of `CNC(=O)Nc1ccc(-c2nc(N3CC4CCC(C3)O4)c3cnn(C4CCC(=O)CC4)c3n2)cc1` [Example 63, 1-methyl-3-{4-[4-(8-oxa-3-azabicyclo[3.2.1]oct-3-yl)-1-(4-oxocyclohexyl)-1H-pyrazolo[3,4-d]pyrimidin-6-yl]phenyl}urea], the IC50 is 0.23 nM in assay [1] and above 10000 nM in assay [2] (PI3 Kinase γ).
With `CNC(=O)Nc1ccc(-c2nc(N3CC4CCC(C3)O4)c3cnn(C4CCC5(CC4)OCCO5)c3n2)cc1` [Example 62, 1-{4-[1-(1,4-dioxaspiro[4.5]dec-8-yl)-4-(8-oxa-3-azabicyclo[3.2.1]oct-3-yl)-1H-pyrazolo[3,4-d]pyrimidin-6-yl]phenyl}-3-methylurea], the IC50 was 0.16 nM in assay [1], above 10000 nM in assay [2] (PI3 Kinase γ) and 2010 nM in assay [3] (PI3 Kinase α).
As for `CNC(=O)Nc1ccc(-c2nc(N3CC4CCC(C3)O4)c3cnn([C@H]4CC[C@@H](O)CC4)c3n2)cc1` [Example 109, 1-(4-(4-(8-oxa-3-azabicyclo[3.2.1]octan-3-yl)-1-((1s,4s)-4-hydroxycyclohexyl)-1H-pyrazolo[3,4-d]pyrimidin-6-yl)phenyl)-3-methylurea], the results for the half-inhibitory concentration (IC50) in assay [1], in assay [2] (PI3 Kinase γ) and in assay [3] (PI3 Kinase α) were 0.3 nM, above 10000 nM and 227 nM, respectively.
Turning to “N-{4-[({4-[1-methyl-4-(8-oxa-3-azabicyclo[3.2.1]oct-3-yl)-1H-pyrazolo[3,4-d]pyrimidin-6-yl]phenyl}carbamoyl)amino]phenyl}acetamide [Example 259]”, the IC50 amounted to 2.4 nM in assay [1], 2720 nM in assay [2] (PI3 Kinase γ) and 1050 nM in assay [3] (PI3 Kinase α).
Turning to `CNC(=O)Nc1ccc(-c2nc(N3CC4CCC(C3)O4)c3cnn(C4CCC(N5CCN(C)CC5)CC4)c3n2)cc1` (centres unmarked) [Example 329, 1-methyl-3-(4-{1-[4-(4-methylpiperazin-1-yl)cyclohexyl]-4-(8-oxa-3-azabicyclo[3.2.1]oct-3-yl)-1H-pyrazolo[3,4-d]pyrimidin-6-yl}phenyl)urea], the results for the IC50 in assay [1] (setting [5]), in assay [2] (setting [6]) and in assay [3] (setting [7]) were 1.75 nM, 4350 nM and 357 nM, respectively.
Take `O=C(Nc1ccncc1)Nc1ccc(-c2nc(N3CC4CCC(C3)O4)c3cnn(CC(F)(F)F)c3n2)cc1` [Example 5, 1-{4-[4-(8-oxa-3-azabicyclo[3.2.1]oct-3-yl)-1-(2,2,2-trifluoroethyl)-1H-pyrazolo[3,4-d]pyrimidin-6-yl]phenyl}-3-pyridin-4-ylurea]: the half-inhibitory concentration (IC50) in assay [1] came out at 0.19 nM; in assay [2] (PI3 Kinase γ), 1030 nM; in assay [3] (PI3 Kinase α), 168 nM.
As to “N~2~,N~2~-dimethyl-N-{4-[({4-[1-methyl-4-(8-oxa-3-azabicyclo[3.2.1]oct-3-yl)-1H-pyrazolo[3,4-d]pyrimidin-6-yl]phenyl}carbamoyl)amino]phenyl}glycinamide [Example 258]”, the IC50 in assay [1] is 3.95 nM; in assay [2] (PI3 Kinase γ) it was 1410 nM; in assay [3] (PI3 Kinase α), 346 nM.
As to `Nc1ccc(-c2nc(N3CC4CCC(C3)O4)c3sccc3n2)cc1` [Example 414, 4-[4-(8-oxa-3-azabicyclo[3.2.1]oct-3-yl)thieno[3,2-d]pyrimidin-2-yl]aniline], the 50% inhibitory concentration (IC50) in assay [1] (setting [5]) was 100 nM; in assay [4], 30000 nM; in assay [2] (setting [6]) it was above 10000 nM.
In the case of `CCNC(=O)Nc1ccc(-c2nc(N3CC4CCC(C3)O4)c3cnn(C4CCC(OC)CC4)c3n2)cc1` (centres unmarked) [Example 301, 1-ethyl-3-{4-[1-(4-methoxycyclohexyl)-4-(8-oxa-3-azabicyclo[3.2.1]oct-3-yl)-1H-pyrazolo[3,4-d]pyrimidin-6-yl]phenyl}urea], the half-maximal inhibitory concentration (IC50) is 0.335 nM in assay [1] (setting [5]), above 10000 nM in assay [2] (setting [6]) and 2030 nM in assay [3] (setting [7]).
For `CNC(=O)Nc1ccc(-c2nc(N3CC4CCC(C3)O4)c3cnn(C4CCC(O)CC4)c3n2)cc1` (centres unmarked) [Example 108, 1-(4-(4-(8-oxa-3-azabicyclo[3.2.1]octan-3-yl)-1-((1r,4r)-4-hydroxycyclohexyl)-1H-pyrazolo[3,4-d]pyrimidin-6-yl)phenyl)-3-methylurea], the IC50 in assay [1] was 0.24 nM; in assay [2] (PI3 Kinase γ), above 10000 nM; in assay [3] (PI3 Kinase α), 882 nM.
